The numbers were not newly measured in US20050065175A1 (Xanodyne Pharmacal, Inc., priority 2003, published 2005), which cites them from elsewhere.

Where a name gives a salt, the structure may show the parent alone.

For series [1] the following is noted: water and ethanol.
For series [2] the following is noted: orally administered tablets, absorption through GI tract.

Consider `CCC(=O)C(CC(C)N(C)C)(c1ccccc1)c1ccccc1` (stereo not shown) [Methadone hydrochloride], for which the solubility result in series [1] is “soluble in water and ethanol”.

Turning to `CCC(=O)C(CC(C)N(C)C)(c1ccccc1)c1ccccc1` (stereo not shown) [methadone], the “bioavailability of oral transmucosal methadone” value (oral cavity fluid pH between about 7 and about 10) was 50-75%. Moreover, the “oral bioavailability of methadone” value (oral cavity pH about 8 to about 9) is given as at most 75%. Further, the “bioavailability via the oral transmucosal route” value (pH about 6.5 to about 6.9 (normal saliva)) was “about 34%”. Moreover, the “bioavailability via the oral mucosa” value (pH of about 8.5) is “about 75%”. Also, under “within the first 2.5 minutes of delivery to the mucosal tissue”, the “portion of the orally bioavailable methadone in the bloodstream” value is 50-70%. Also, the “time until methadone can be detected in blood plasma after ingestion” value in series [2] was at most 30 min.
